For nine molecules, carcinogen call results are on record in PubChem BioAssay AID1259411 (Chemical Carcinogenesis Research Information System (CCRIS), 2018).

Structures are written as SMILES. Activity calls are given as the source filed them. The rule behind the calls is not given here.

In this series the test system is rodent carcinogenicity bioassays, tumor incidence. Briefly: CCRIS carcinogenicity studies. The method in brief:
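NCI-built, expert-reviewed records of carcinogenicity and related test outcomes (mutagenicity, tumor promotion/inhibition) compiled from published and report sources, historical span 1985-2011, not updated.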

In the case of `CN1C(C(=O)Nc2ccccn2)=C(O)c2sc(Cl)cc2S1(=O)=O`, the carcinogen call (Species: RAT, Strain/Sex: SPRAGUE-DAWLEY/FEMALE, Route: GAVAGE, Dose: 0, 0.0625, 0.125, 0.250 MG/KG BW/D FOR 104 WK, HIGH DOSE REDUCED TO 0.0200 MG/KG FROM STUDY WK 42 TO 50 THEN TO 0.160 MG, Dose: 0, 0.0625, 0.125, 0.250 MG/KG BW/D FOR 104 WK, HIGH DOSE REDUCED TO 0.0200 MG/KG FROM STUDY WK 42 TO 50 THEN TO 0.160 MG) was “inactive; negative” and the carcinogen call (Species: RAT, Strain/Sex: SPRAGUE-DAWLEY/MALE, Route: GAVAGE, Dose: 0, 0.0625, 0.125, 0.250 MG/KG BW/D FOR 104 WK (STUDY DURATION: 104 WK), Dose: 0, 0.0625, 0.125, 0.250 MG/KG BW/D FOR 104 WK (STUDY DURATION: 104 WK)) is “inactive; negative”.

Take `ClCCOCCCl`: the carcinogen call is “active; positive” (Species: MOUSE, Strain/Sex: B6AKF1/MALE, Route: GAVAGE/ORAL, Dose: 100 MG/KG FROM DAY 7-28 OF LIFE THEN 300 MG/KG IN DIET, Tumor Site: Type of Lesion: LIVER: HEPATOMA); “active; positive” (Species: MOUSE, Strain/Sex: B6C3F1/MALE,FEMALE, Route: GAVAGE/ORAL, Dose: 100 MG/KG FROM DAY 7-28 OF LIFE THEN 300 MG/KG IN DIET, Tumor Site: Type of Lesion: LIVER: HEPATOMA); “inactive; negative” (Species: RAT, Strain/Sex: SPRAGUE-DAWLEY/MALE, Route: SUBCUTANEOUS, Dose: 0, 13.1, 4.36 UMOL IN DMSO 1/WK FOR 2 YR (STUDY DURATION: 2 YR), Dose: 0, 13.1, 4.36 UMOL IN DMSO 1/WK FOR 2 YR (STUDY DURATION: 2 YR)); “inactive; negative” (Species: RAT, Strain/Sex: STRAIN-CD/MALE,FEMALE, Route: GAVAGE, Dose: 25, 50 MG/KG IN STEROID SUSPENDING VEHICLE 2/WK FOR 78 WK).

In the case of `O=C(O)CCCCCCCCC(=O)O`, the carcinogen call (Species: RABBIT, Strain/Sex: NEW ZEALAND/FEMALE, Route: ORAL, Dose: 0, 750, 1000 MG/KG/BW IN DIET FOR 6 MO (STUDY DURATION: 181 D), Dose: 0, 750, 1000 MG/KG/BW IN DIET FOR 6 MO (STUDY DURATION: 181 D)) is “inactive; negative”; the carcinogen call (Species: RABBIT, Strain/Sex: NEW ZEALAND/MALE, Route: ORAL, Dose: 0, 750, 1000 MG/KG/BW IN DIET FOR 6 MO (STUDY DURATION: 181 D), Dose: 0, 750, 1000 MG/KG/BW IN DIET FOR 6 MO (STUDY DURATION: 181 D)) was “inactive; negative”; the carcinogen call (Species: RAT, Strain/Sex: WISTAR/FEMALE, Route: ORAL, Dose: 0, 500, 1000 MG/KG/BW IN DIET FOR 6 MO (STUDY DURATION: 181 D), Dose: 0, 500, 1000 MG/KG/BW IN DIET FOR 6 MO (STUDY DURATION: 181 D)) is “inactive; negative”; the carcinogen call (Species: RAT, Strain/Sex: WISTAR/MALE, Route: ORAL, Dose: 0, 500, 1000 MG/KG/BW IN DIET FOR 6 MO (STUDY DURATION: 181 D), Dose: 0, 500, 1000 MG/KG/BW IN DIET FOR 6 MO (STUDY DURATION: 181 D)) was “inactive; negative”.

As to `N#Cc1ccc(C/C(=N\NC(=O)Nc2ccc(OC(F)(F)F)cc2)c2cccc(C(F)(F)F)c2)cc1`, the carcinogen call (Species: Mouse, Strain/Sex: CD-1/Female (65/Group), Route: Oral, Dose: 0 (aqueous carboxymethylcellulose), 100, 250, 1000 mg/kg/day of 96.3% metaflumizone by gavage for 18 mo, study duration, Dose: 0 (aqueous carboxymethylcellulose), 100, 250, 1000 mg/kg/day of 96.3% metaflumizone by gavage for 18 mo, study duration) was “inactive; negative”; the carcinogen call (Species: Mouse, Strain/Sex: CD-1/Male (65/Group), Route: Oral, Dose: 0 (aqueous carboxymethylcellulose), 100, 250, 1000 mg/kg/day of 96.3% metaflumizone by gavage for 18 mo, study duration, Dose: 0 (aqueous carboxymethylcellulose), 100, 250, 1000 mg/kg/day of 96.3% metaflumizone by gavage for 18 mo, study duration) was “inactive; negative”; the carcinogen call (Species: Rat, Strain/Sex: Sprague-Dawley/Female (80/Group), Route: Oral, Dose: 0 (aqueous carboxymethylcellulose), 30, 60, 300 mg/kg/day (adjusted to 200 mg after 2 weeks of treatment) of 96.3% metaf, Dose: 0 (aqueous carboxymethylcellulose), 30, 60, 300 mg/kg/day (adjusted to 200 mg after 2 weeks of treatment) of 96.3% metaf) is “inactive; negative”; the carcinogen call (Species: Rat, Strain/Sex: Sprague-Dawley/Male (80/Group), Route: Oral, Dose: 0 (aqueous carboxymethylcellulose), 30, 60, 300 mg/kg/day of 96.3% metaflumizone by gavage for 24 mo, study duration 24, Dose: 0 (aqueous carboxymethylcellulose), 30, 60, 300 mg/kg/day of 96.3% metaflumizone by gavage for 24 mo, study duration 24) is “inactive; negative”.

As for `O=C(CO)CO`, the carcinogen call is, setting by setting: (Species: MOUSE, Strain/Sex: SWISS/FEMALE, Route: DERMAL, Dose: 0, 5, 40% AQUEOUS SOLUTION APPLIED 1/WK FOR 80 WK (STUDY DURATION: 80 WK), Dose: 0, 5, 40% AQUEOUS SOLUTION APPLIED 1/WK FOR 80 WK (STUDY DURATION: 80 WK)) “inactive; negative”; (Species: MOUSE, Strain/Sex: SWISS/MALE, Route: DERMAL, Dose: 0, 5%, 40% AQUEOUS SOLUTION APPLIED 1/WK FOR 80 WK (STUDY DURATION: 80 WK), Dose: 0, 5%, 40% AQUEOUS SOLUTION APPLIED 1/WK FOR 80 WK (STUDY DURATION: 80 WK)) “inactive; negative”.

For the molecule `CNNC`, the carcinogen call reads like this: (Species: HAMSTER, Route: INTRAMUSCULAR, Tumor Site: Type of Lesion: STOMACH, LIVER, INTESTINES, Tumor Site: Type of Lesion: STOMACH, LIVER, INTESTINES) “active; positive”; (Species: HAMSTER, Route: ORAL, Tumor Site: Type of Lesion: BLOOD VESSELS, INTESTINES, LIVER, Tumor Site: Type of Lesion: BLOOD VESSELS, INTESTINES, LIVER) “active; positive”; (Species: MONKEY, Strain/Sex: CEBUS APELLA/MALE, Route: SUBCUTANEOUS, Dose: 0, 25 MG/KG BW 1/WK FOR 16 WK (STUDY DURATION: 20 MO)) “inactive; negative”; (Species: MOUSE, Route: ORAL, Tumor Site: Type of Lesion: LUNG, BLOOD VESSELS) “active; positive”; (Species: MOUSE, Route: SUBCUTANEOUS, Tumor Site: Type of Lesion: COLON, INTESTINES) “active; positive”; (Species: RAT, Route: ORAL, Tumor Site: Type of Lesion: INTESTINES, LIVER) “active; positive”. Moreover, the carcinogen call runs as follows: (Species: RAT, Route: SUBCUTANEOUS, Tumor Site: Type of Lesion: COLON, INTESTINES, LIVER, Tumor Site: Type of Lesion: COLON, INTESTINES, LIVER) “active; positive”; (Species: RAT, Strain/Sex: WISTAR/FEMALE, Route: SUBCUTANEOUS, Dose: 0, 200 MG/KG BW ONCE (STUDY DURATION: 1 YR), Tumor Site: Type of Lesion: KIDNEY: TUMOR) “active; positive”; (Species: RAT, Strain/Sex: WISTAR/MALE, Route: SUBCUTANEOUS, Dose: 30 MG/KG IN NACL-EDTA 1/WK FOR 10 OR 15 WK, Tumor Site: Type of Lesion: INTESTINES: CARCINOMA (INVASIVE, INCLUDING MUCIN AND NONMUCIN PRODUCING), CARCINOMA (NONINVASIVE)) “active; positive”.

`CC1(C)O[C@@H]2C[C@H]3[C@@H]4CCC5=CC(=O)C=C[C@]5(C)[C@@]4(F)[C@@H](O)C[C@]3(C)[C@]2(C(=O)CO)O1`: the carcinogen call (Species: RAT, Strain/Sex: SPRAGUE-DAWLEY/MALE, Route: ORAL, Dose: 0, 1.5 UG/ML IN DRINKING WATER FOR AN AVERAGE DAILY DOSE OF 12.7 UG/KG DURING WK10-20 THEN 4.8 UG/KG DURING WK 21-104 (S, Tumor Site: Type of Lesion: LIVER: HEPATOCELLULAR ADENOMA OR CARCINOMA) was “active; positive”.

With `C/C=C/c1cc(OC)c(OC)cc1OC`, the carcinogen call was “active; positive” (Species: MOUSE, Strain/Sex: B6C3F1/MALE, Route: INTRAPERITONEAL, Dose: 0, 0.25, 0.5 UMOL/G BW ONCE (STUDY DURATION: 10-11 MONTHS), Dose: 0, 0.25, 0.5 UMOL/G BW ONCE (STUDY DURATION: 10-11 MONTHS), Tumor Site: Type of Lesion: LIVER: HEPATOMA) and “inactive; negative” (Species: MOUSE, Strain/Sex: CD-1/FEMALE, Route: DERMAL, Dose: 0, 5 UMOL 1X/WK FOR 3 WK BEGINNING 24 HR POST FIRST TPA DOSE (2.5 UG IN 0.1 ML ACETONE), FOLLOWED BY 2.5 UG TPA IN 0.1 M).

Consider `C=CN(C)N=O`, for which the carcinogen call by setting is: (Species: RAT, Route: INHALATION, Tumor Site: Type of Lesion: NASAL CAVITY) “active; positive”; (Species: RAT, Route: ORAL, Tumor Site: Type of Lesion: ESOPHAGUS) “active; positive”.
